Melting point data for 89 molecules are collected here from a melting point compilation (Tetko et al.; mined from patent text by program, amines drawn as free bases though some values may be those of a salt).

As usually defined, the melting point is the temperature, or range, at which the solid turns liquid. In turn, `CN(C)CCCNc1ncc2c(n1)-c1ccccc1C(c1ccc(Cl)c(Cl)c1)C2` (centres undefined) showed a melting point of 59 to 62 °C. In the case of `CC1=NN=C(c2ccc([N+](=O)[O-])cc2)c2cc3c(cc2C1)OCCOC3`, the melting point is 204 to 206 °C. With `COC(=O)C(C)(C)CC(=O)c1ccc(-n2ccnc2)cc1` the figure was 89 to 93 °C. Molecule `Cc1noc(NS(=O)(=O)c2ccccc2-c2ccc(-c3ncco3)cc2CN2Cc3ccccc3C2=O)c1C` showed a melting point of 135 to 142 °C. In the case of `CC(=O)c1ccc(OCCN2CCN(c3cc(Cl)nnc3Cl)CC2)cc1`, the melting point is 115 to 117 °C. `CCCCCCCCCCCCSCCO` registered a melting point of 31 to 32 °C.

In the case of `CSc1cc2ccc(-c3ccccc3)cc2cc1O`, the melting point is 149 to 150 °C. With `CC(C)[C@H](NC(=O)OCc1csc(N2CCOCC2)n1)C(=O)N[C@@H](Cc1ccccc1)C[C@H](O)[C@H](Cc1ccccc1)NC(=O)OCc1cncs1` the figure was 169 to 170 °C. With `NC(=S)NNc1ccc(Cl)cc1`, the melting point is 200 to 201 °C. Regarding `Cn1c(SC(F)F)n[nH]c1=O`, the melting point came to 87 °C.

For the molecule `COC(=O)/C=C/c1cccc(Br)c1`, the melting point lay in the range of 53 to 55 °C.

In turn, `CC1(C)C(=O)Nc2cc3oc(-c4ccncc4)nc3cc21` yielded a melting point of 336 to 338 °C. `O=[N+]([O-])c1cnn(C2CC2)c1` displayed a melting point of 44 to 45 °C. The figure for `N#Cc1c(CNC(=O)C2(S(=O)(=O)c3ccc(Cl)cc3)CCCC2)nn(-c2ccccc2Cl)c1-c1ccc(Cl)cc1` is 109 °C; for `O=C(O)c1cc(=O)c2cc(O)c(=O)ccc2[nH]1` it is 258 to 260 °C. In turn, `O=C(O)c1nn(-c2ccccc2)c2c1C(N1CCOCC1)c1ccccc1-2` (centres undefined) displayed a melting point of 244 to 245 °C. The figure for `CCCCCCCCCCCCCCCC(=O)CC(=O)OCC` is 37 to 38 °C; for `CCc1oc(-c2ccc(C(F)(F)F)cc2)cc1CCC(=O)Nc1cccc(CSCC(=O)O)c1` it is 139 to 141 °C; for `CCc1cc(CC)nc(Sc2ccnc3cc(Cl)ccc23)n1` it is 64.8 to 66 °C.

In turn, `Oc1cccc(Cc2ccc3ccccc3c2O)c1` registered a melting point of 100 to 101 °C. `CC(C)Oc1cc(CCCO)n(Cc2ccc(Cl)cc2Cl)n1` returned a melting point of 51 to 52 °C. With `CCSc1cccc2c1CC(=O)N2`, the melting point lay in the range of 143 to 144 °C. Take `CCc1ccc(-n2c(-c3ccccn3)nc(SC)c(C#N)c2=O)cc1`: the melting point is 172 to 175 °C. The molecule `CCOP(=O)(Cc1ccc(NC(=O)/C=C/c2c(C)noc2-c2ccccc2)cc1)OCC` returned a melting point of 155 to 156 °C. For `COC(=O)CC(c1ccccc1)N1C(=O)c2ccccc2C1=O` (centres undefined), the melting point fell in the range of 75 to 76 °C. Regarding `CCCCCCCCCCCCCCc1ccc(N(CC(=O)O)CC(=O)O)cc1`, the melting point fell in the range of 160 to 165 °C. With `CC(C)OC(=O)c1nsc2ccc(-n3c(=O)cc(C(F)(F)F)n(C)c3=O)cc12` the figure was 94 to 97 °C; with `Cc1cn(Cc2ccc(N)cc2)cn1`, 141 to 142 °C. With `N#CCc1ccccc1CCNC(=O)c1ccc([N+](=O)[O-])cc1` the figure was 119 °C.

Molecule `O=C(CCn1ccnc1)N1c2ccccc2Sc2ccccc21` returned a melting point of 150 to 152 °C. As for `NS(=O)(=O)c1cccc(N/C=C2\C(=O)Nc3ccccc32)c1`, the melting point was > 250 °C. With `CCOC(=O)C(C)Oc1ccc(N(C)c2nc3ccc(Br)cc3o2)cc1` (centres undefined), the melting point was in the range of 91 to 92 °C. With `CCC[C@H](C)C(=O)O[C@H]1CCC=C2C=C[C@H](C)[C@H](CC[C@@H]3C[C@@H](O)CC(=O)O3)[C@H]21`, the melting point lay in the range of 110 to 112 °C.

Regarding `CN1C(=O)C2(COc3cc4c(cc32)OCCO4)c2c(C(N)=O)cccc21` (centres undefined), the melting point was > 250 °C. `CC(=Nc1ccc(NC(=O)[C@@H](N)CC(C)C)cc1)N(C)C` yielded a melting point of 106 to 107 °C. In turn, `Cc1c(C)c2c(c(C)c1N)CC(C)(CN1CCN(C(=O)c3ccc(Cl)cc3)CC1)O2` (centres undefined) showed a melting point of 136 to 138 °C. The molecule `Cc1ccc2c(c1)C(NC(=O)CCCCl)c1ccccc1CS2(=O)=O` (centres undefined) came in with a melting point of 203 to 204 °C. For the molecule `O=C(O)[C@@H]1CCc2ccc(O)cc2O1`, the melting point was 77 to 79 °C. Consider `COc1cc2ncc(C#N)c(Nc3cccc(F)c3)c2cc1OC`, for which the melting point lay within 226 to 230 °C. `CCC(=O)N1CCC(=NO)c2cc(Cl)ccc21` gave a melting point of 166 to 169 °C. On to `FC(F)C(F)(F)Oc1ccc(C=NNc2nc(Nc3ccc(OC(F)(F)F)cc3)nc(N3CCOCC3)n2)cc1`, for which the melting point lay within 203 to 206 °C. The molecule `COC(=O)c1ccccc1-c1noc(-c2cccc(C(F)(F)F)c2)n1` came in with a melting point of 84.5 to 86.5 °C. The figure for `Cn1c(=O)c2c(-c3ccccc3)n(-c3ccccc3N)cc2n(C)c1=O` is > 300 °C; for `COC(=O)c1cc(-c2ccc(S(C)(=O)=O)cc2)n(-c2ccc(F)cc2)c1` it is 144 to 146 °C; for `Cc1ncc(COP(=O)(O)O)c(CN(CCN(CC(=O)O)Cc2c(COP(=O)(O)O)cnc(C)c2O)CC(=O)O)c1O` it is 174 to 180 °C.

`CCOC(=O)CCc1c(OCc2ccc(OCc3nc(-c4ccccc4)oc3C)cc2)ccc2ccccc12`: the melting point was in the range of 86 to 87 °C. In turn, `CN(C)C(=O)Nc1ccc2c(c1)C(CN1CCC(c3ccc(F)cc3)CC1)CC2` (centres undefined) returned a melting point of 141 to 144 °C.

`CC(C)(C)OC(=O)C[C@H](NC(=O)CNC(=O)c1csc(NC(=O)NCc2ccccc2)n1)C(=O)NCc1ccccn1` returned a melting point of 108 °C.

For `COc1ccc(Cl)cc1-n1cc[nH]c1=O`, the melting point was 133 to 134 °C. As to `COCCNc1ccc2ncnc(Nc3ccc(F)cc3F)c2c1`, the melting point lay in the range of 175 to 176 °C. In the case of `CN(O)C(=O)c1ccccc1`, the melting point was < 20 °C.

For `CN1C(=O)c2c(c3ccc(Cl)cc3n2CCN2CCCCC2)Oc2ccccc21`, the melting point was in the range of 160 to 162 °C. With `CC(C)(C)OC(=O)N1CCn2c(Cl)c(Br)c(C(N)=O)c2C1` the figure was 214 to 216 °C; with `COC(=O)C1(C)CCc2c(C)c(O)c(C)c(C)c2O1` (centres undefined), 132 to 135 °C. The figure for `CSc1ccc2cc(Cc3ccccc3)cc(CCNC(C)=O)c2c1` is 126 to 128 °C; for `CC(C)c1nn(-c2ccc(C(F)(F)F)cn2)cc1CCCOc1cccc(CCC(=O)O)c1` it is 102 to 103 °C. With `CC(C)(Br)C(=O)OCCN1C(=O)c2ccccc2C1=O`, the melting point is 63 to 65 °C. In turn, `COc1ccc(CN2CCN(C3=NC4(C=CC(=O)C=C4)C(c4ccc(OC)cc4)=C3)CC2)cc1` displayed a melting point of 142 °C.

`OCC1OC(n2cnc3c(NCC(c4ccccc4)c4cccc(Cl)c4)ncnc32)C(O)C1O` (centres undefined) registered a melting point of 107 to 110 °C. Molecule `CCn1c(=O)c(-c2cc(C)cc(C)c2)cc2cnc(Nc3ccccc3)nc21` gave a melting point of 220 to 223 °C. With `CCCN(CCC)C(=O)C1CSc2ccc(N)cc21` (centres undefined), the melting point amounted to 100 °C. `CC(=O)C1CC(c2ccccc2)CCC1=O` (centres undefined) came in with a melting point of 53 to 54 °C. For the molecule `CCC(C#N)(COc1ccc(Cl)cc1)c1cccnc1` (centres undefined), the melting point was determined as 82.1 °C. With `CCCCc1nc(Cl)c(C=O)n1Cc1ccc(-c2nc3ccccn3c2C(=O)O)cc1`, the melting point is 120 to 123 °C. With `CC(Br)C(=O)c1cc2c(Cl)cccc2s1` (centres undefined) the figure was 104 to 106 °C; with `O=[N+]([O-])c1ccc(NCCF)nc1`, 126 to 127 °C; with `CC(C)(C)OC(=O)n1[nH]c2c(cnc3c([N+](=O)[O-])cccc32)c1=O`, > 250 °C.

`Cc1ccccc1C(=O)Nc1cccc(OCc2ccccc2)c1` showed a melting point of 114 to 115 °C. With `CNS(=O)(=O)c1cn(C)c2cc(C(F)(F)F)ccc2c1=O` the figure was 218 to 219 °C. On to `CN(C)c1cccc(OCC(=O)NCCO[N+](=O)[O-])c1`, for which the melting point lay within 62 to 63 °C. Take `COC1c2c(c(C)nn2-c2ccccn2)C(=O)CC1(C)C` (centres undefined): the melting point is 86 to 89 °C. `Nc1cccc2c(=O)[nH]ncc12` gave a melting point of 289 to 291 °C. `Clc1ccc(C2(CCBr)OCC(c3ccc(Cl)cc3Cl)O2)cc1` (centres undefined): the melting point stood at 82.7 °C. `O=Cc1ccccc1OCC(=O)NCCO[N+](=O)[O-]` showed a melting point of 99 to 101 °C.

Molecule `CCc1coc(=O)n1C(=O)c1ccccc1Cl` came in with a melting point of 110 to 112 °C. In turn, `O=C(O)Cc1c(C(=O)O)c2cc(Oc3ccc(Cl)c(Cl)c3)ccc2n1-c1ccc(OCC(F)(F)F)cc1` gave a melting point of 205 to 210 °C. The figure for `CC(C)(C)OC(=O)NC1CCCCCC=CC2CC2(C(=O)NS(=O)(=O)C2CC2)NC(=O)C2CC(OC(=O)c3ccc4ccccc4c3)CN2C1=O` (centres undefined) is 156 to 158 °C; for `CC1C(=O)N(c2ccc(Oc3ccccc3)cc2)C(=S)N1Cc1ccccc1` (centres undefined) it is 138 °C; for `CS(=O)(=O)c1ccc(-c2sc(COc3cc(Cl)cc(Cl)c3)nc2-c2ccc(F)cc2)cc1` it is 171 to 173 °C.

In turn, `CCOC(=O)CCCCCCC(NC(N)=O)C(=O)OCC` (centres undefined) gave a melting point of 79 to 80 °C. With `COc1ccc(N2CCN(c3cccnn3)CC2)cc1`, the melting point amounted to 133 °C. As to `CC(CCCC(F)(C(F)(F)F)C(F)(F)F)C1CC(=O)C2=C3CCC4CC(O)CCC4(C)C3CCC21C` (centres undefined), the melting point lay within 177 to 179 °C. Take `COc1ccc(C#N)cc1C(C)(C)C=O`: the melting point was 115 to 117 °C.

The molecule `O=C(c1ccc(O)cc1)c1cc(Cl)cc(Cl)c1` came in with a melting point of 183 °C. Consider `COCCNC(=O)c1cccc(CN2C(=O)C3(COc4cc5c(cc43)CCO5)c3ccccc32)c1` (centres undefined), for which the melting point lay in the range of 72 to 73 °C.

Regarding `CCOC(=O)c1c(CN2CCCCC2)nc2cc(OC)c(OC)cc2c1-c1ccc(OC)c(OC)c1`, the melting point was 148 to 149 °C. In the case of `CCOC(=O)c1c(C(F)(F)F)ncc(C(=O)O)c1OC(C)C`, the melting point is 97 to 99 °C. With `CCCCCCCCCCCCCCCCCCNC(=O)OCC(CNS(=O)(=O)CCCCl)NC(=O)OC(C)(C)C` (centres undefined) the figure was 112 to 115 °C; with `CC(C(=O)O)c1ccc2[nH]ncc2c1` (centres undefined), 91 to 96 °C.
